In the assay the target is T1, recombinant human 5-HT6 receptor (Homo sapiens, UniProt P50406).
T1 construct: expressed in transfected cells; membranes
Description: Radioligand binding, [3H]LSD competition in HEK293 cell membranes. The note with it: competition for [3H]LSD binding, membranes of HEK293 cells expressing recombinant human 5-HT6 receptor; read-out: pKi for 5-HT6 (converted). Here is the method: The binding activity of compounds of this invention in vitro was determined as follows. Duplicate determinations of 5-HT6 ligand affinity were made by competing for binding of [^3H]LSD in cell membranes derived from HEK293 cells stably expressing recombinant human 5-HT6 receptor. Duplicate determinations of 5-HT2A ligand affinity were made by competing for binding of [^3H]Ketanserin (3-(2-(4-(4-fluorobenzoyl)piperidinol)ethyl)-2,4(1H,3H)-quinazolinedione) in cell membranes derived from CHO-K1 cells stably expressing recombinant human 5-HT2A receptor. Membranes were prepared from HEK 293 cell lines by the method described by Monsma et al., Molecular Pharmacology, Vol. 43 pp. 320-327 (1993), and from CHO-K1 cell lines as described by Bonhaus et al., Br J Pharmacol. June; 115 (4):622-8 (1995).
For estimation of affinity at the 5-HT2A receptor all determinations were made in assay buffer containing 50 mM Tris-HCl, 5 mM ascorbic acid, 4 mM CaCl2, pH 7.4 at 32° C., in a 250 microliter reaction volume.
Assay tubes containing [^3H] […] LSD or [^3H]Ketanserin were determined as radioactive counts per minute using Packard TopCount.
Displacement of [^3H]LSD or [^3H]Ketanserin from the binding sites was quantified by fitting concentration-binding data to a 4-parameter logistic equation: […]

Structures are written as SMILES.

The values that follow come from US7981923B2, “Tetralin and indane derivatives and uses thereof” (Roche Palo Alto LLC, priority 2006, dated 2011).

T1 sequence (P50406 whole entry): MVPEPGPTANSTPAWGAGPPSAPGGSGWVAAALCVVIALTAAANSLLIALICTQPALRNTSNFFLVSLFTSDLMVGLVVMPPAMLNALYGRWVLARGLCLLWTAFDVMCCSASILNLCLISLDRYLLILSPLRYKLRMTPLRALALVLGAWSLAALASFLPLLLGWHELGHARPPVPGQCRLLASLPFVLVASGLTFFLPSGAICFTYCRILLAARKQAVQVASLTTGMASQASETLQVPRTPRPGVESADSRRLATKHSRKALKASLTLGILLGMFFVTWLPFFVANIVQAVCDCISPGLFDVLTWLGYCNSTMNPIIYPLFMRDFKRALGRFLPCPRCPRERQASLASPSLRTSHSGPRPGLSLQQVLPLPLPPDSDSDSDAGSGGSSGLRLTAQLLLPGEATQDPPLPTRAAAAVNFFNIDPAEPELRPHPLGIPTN

As to `NC[C@@H]1CCCc2cc(S(=O)(=O)c3cccc(F)c3)cc(F)c21` (stereo in doubt) [C-[8-Fluoro-6-(3-fluoro-benzenesulfonyl)-1,2,3,4-tetrahydro-naphthalen-1-yl]-methylamine], the Ki was ~0.1 nM.
